Data from publication PMC6152024 (Molecules : A Journal of Synthetic Chemistry and Natural …, 2017).
Where two headings read alike, the source gives them in different places.

Legend:
[1] = cited from earlier work
[2] = In vivo pharmacokinetic study of DCCTX and Gom A in rats; conditions: Sprague-Dawley, rat, plasma, iv, 300 mg/kg; for AUC(0-t): read-out: AUC0–8h; for MRT last: read-out: MRT0–8h
Description: Rats were randomly divided into five groups (groups 1−5, n = 6), respectively. To determine the short- and long-term effect of single-dose Gom A pretreatment on CYP3A metabolism of CTX, Gom A and CTX were administered to rats with different time intervals in groups 2−5. In brief, rats in group 1 (CTX alone group) were i.g. administered with saline (10 mL/kg, vehicle control), and rats in groups 2−5 were given Gom A (i.g.) at the dose of 20.8 mg/kg (50 μmol/kg). Rats in group 1 were intravenously (i.v.) administered with CTX (300 mg/kg) 0.5 h after saline administration. In groups 2–5, rats were given CTX (i.v.) 0.5, 6, 24 and 72 h after Gom A pretreatment, respectively. Mesna was injected (420 mg/kg, i.v.) 1 hour after CTX administration in all groups to prevent bladder injury in accordance with clinical practice.
Blood samples were collected from the postocular vein at 0.083, 0.25, 0.5, 1, 2, 3, 4, 6, 8, 12 and 24 h after CTX injection. Samples were transferred to heparin tubes and centrifuged at 5000 rpm for 15 min. Plasma was obtained and stored at −20 °C until required for further analysis.
UHPLC-MS/MS method (I): 6OH-Tes concentrations were analyzed according to the previous reports with slight modifications (Supplementary Figure S3). The terminated sample were centrifuged at 14,000 rpm for 10 min, 10 μL of each supernatant was injected into the UHPLC-MS/MS system for analysis. In general, an Agilent Elipse Plus 2.1 × 50 mm column packed with 1.8 µm C18 was applied. The column temperature was set as 30 °C at a flow rate of 0.3 mL/min. The mobile phase was consisted of aqueous 1% formic acid with the addition of 10 mM ammonium acetate solution (A) and methanol (B) with the gradient elution program set as follow: 5–50–80% B from 0–1–4 min. The ion transitions were m/z 305.0→269.0 for 6OH-Tes and m/z 181.0→111.0 for phenacetin (IS-I). UHPLC-MS method (II): DCCTX concentrations were determined using our previously developed UHPLC-MS/MS method (Supplementary Figure S4). For pharmacokinetic study, plasma samples were diluted 30-fold with plasma from drug-free rats. After vortexing for 2 min, 100 μL of each diluted sample was mixed with 400 μL acetonitrile (containing 6 ng/mL TNZ (IS-II), vortexed, and centrifuged at 14,000 rpm for 10 min. 100 μL supernatant of each sample was mixed with 400 μL aqueous solution containing 10% acetonitrile followed by a rough centrifugation. For HLMs inhibition study, samples were vortexed for 1 min after reaction termination, and the mixture was then centrifuged at 14,000 rpm for 10 min. After centrifugation, the obtained supernatant (5 μL) was injected into the UHPLC-MS/MS system, using methanol/10 mM ammonium acetate aqueous solution as the mobile phase at a flow rate of 0.25 mL/min. The ion transitions were set as m/z 199.2→78 for DCCTX and m/z 248.1→121.1 for TNZ (IS-II). UHPLC-MS/MS method (III): Gom A concentrations were determined using slightly modified LC/MS method which developed by our laboratory. Briefly, a 100 µL plasma sample was transferred to a 10 mL centrifuge tube with addition of 20 µL IS solution and 20 µL water/acetonitrile (90:10, v/v), vortexed for 30 s and then extracted using 3 mL methyl tertiary butyl ether. After extraction, the sample was centrifuged at 5000 rpm for 10 min. The organic layer was quantitatively transferred to a 5 mL glass tube and evaporated to dryness at 35 °C. Then the dried extract was reconstituted in 100 µL solvent (water–acetonitrile, 20:80, v/v) followed by injection of 10 µL aliquot into LC-MS/MS system. Separation was performed on a Zorbax SB-C18 reserved-phase column (100 mm × 2.1 mm i.d., 3.5 µm) with the mobile phase consisting of acetonitrile, methanol and water −0.1% formic acid (72:18:10, v/v/v) at a flow rate of 0.3 mL/min. The ion transitions were set as m/z 399→329 for Gom A and m/z 387.0→145.0 for bifendate (IS-III). […]

[3] = Group 1: CTX 300 mg/kg i.v. alone (saline 0.5 h before)
[4] = Group 2: CTX 300 mg/kg i.v. 0.5 h after Gom A 20.8 mg/kg i.g.
[5] = Group 3: CTX 300 mg/kg i.v. 6 h after Gom A 20.8 mg/kg i.g.
[6] = Group 4: CTX 300 mg/kg i.v. 24 h after Gom A 20.8 mg/kg i.g.
[7] = Group 5: CTX 300 mg/kg i.v. 72 h after Gom A 20.8 mg/kg i.g.

O=P1(N(CCCl)CCCl)NCCCO1 (stereo not drawn) [CTX, cyclophosphamide]
plasma protein binding rate [1]: approximately 9%

O=P1(NCCCl)NCCCO1 (stereo not drawn) [DCCTX, 2-dechloroethylcyclophosphamide]
Cmax [2, 3]: 8600 ± 1300 ng/mL
Tmax [2, 3]: 2 ± 0.1 h
half-life [2, 3]: 2.2 ± 0.5 h
AUC(0-t) [2, 3]: 32500 ± 8400 ng·h/mL
MRT last [2, 3]: 3.3 ± 0.2 h
Cmax [2, 4]: 1900 ± 200 ng/mL
Tmax [2, 4]: 2.9 ± 0.6 h
half-life [2, 4]: 3.1 ± 0.9 h
AUC(0-t) [2, 4]: 8900 ± 300 ng·h/mL
MRT last [2, 4]: 3.8 ± 0.2 h
Cmax [2, 5]: 2600 ± 500 ng/mL
Tmax [2, 5]: 3.7 ± 0.8 h
half-life [2, 5]: 3.2 ± 0.8 h
AUC(0-t) [2, 5]: 11800 ± 2500 ng·h/mL
MRT last [2, 5]: 4.2 ± 0.1 h
Cmax [2, 6]: 16200 ± 1200 ng/mL
Tmax [2, 6]: 2 ± 0.1 h
half-life [2, 6]: 2 ± 0.4 h
AUC(0-t) [2, 6]: 65900 ± 12400 ng·h/mL
MRT last [2, 6]: 3.3 ± 0.2 h
Cmax [2, 7]: 20000 ± 3100 ng/mL
Tmax [2, 7]: 3.3 ± 0.5 h
half-life [2, 7]: 3.8 ± 1.2 h
AUC(0-t) [2, 7]: 79200 ± 19100 ng·h/mL
MRT last [2, 7]: 3.7 ± 0.2 h

C=CC[C@@H]1/C=C(\C)C[C@H](C)C[C@H](OC)[C@H]2O[C@@](O)(C(=O)C(=O)N3CCCC[C@H]3C(=O)O[C@H](/C(C)=C/[C@@H]3CC[C@@H](O)[C@H](OC)C3)[C@H](C)[C@@H](O)CC1=O)[C@H](C)C[C@@H]2OC [Tacrolimus]
plasma protein binding [1]: strongly bound to plasma protein
